{"source": "patent US7727530B2", "about": "“Anti-cancer composition comprising proline or its derivatives and an anti-tumour antibody” (priority 2004, dated 2010)", "assay_type_in_all_cases": "cell-based", "key": {"[1]": {"system": "MIAPaCa2 pancreatic cancer cell line", "experiment": "MTT proliferation (chemosensitivity) assay, MIAPaCa2", "experimental": "(§1) MTT proliferation tests were performed as described. The proliferation control of both the untreated cells and the CHP pre-treated cells is set to 100%.\n(§2) Unless otherwise indicated, all cell lines were obtained from the American Type Culture Collection (ATCC, Rockville, Md.) and grown to confluent monolayers in RPMI-1640 bicarbonate medium (Seromed, Berlin, Germany) in a humidified incubator (5% CO2, 37° C.). Cells were checked for mycoplasma contamination. The medium was supplemented with 10% heat-inactivated foetal bovine serum (Seromed) and 4 mM glutamine. The cells were subcultured by trypsination (0.03% trypsin containing 0.02% EDTA, three times a week). Cells numbers were counted using a TOA Sysmex microcellcounter (TOA, Tokyo, Japan).\n(§3) 10^4 cells/well were distributed into 96-well microtitre plates (100 μl medium) and the compounds to be tested were added in another 100 μl volume. All compounds were diluted in triplicate or in most cases in quadruplicate. Plates were incubated under tissue culture conditions for 4 days, except those for tests investigating the relationship between application time and response, and cell viability was measured using a modified MTT assay (formazane dye formation from tetrazolium salts by mitochondrial reduction; EZ4U, Biomedica, Vienna, Austria), assessing mitochondrial activity and thereby cell viability/cell numbers. In brief, the supplied substrate was diluted in an activator solution and 20 μl of the mixture added per well for 2 hrs. The optical density was measured at 450 nm using an empty well as reference in a microplate reader (Eurogenetics, Brussels, Belgium). For each cell line, 8 wells were used to measure the MTT signal of the medium control without test substances and the proliferation in the test wells was calculated in relation to these control values set to 100%. Test results were recorded between 0.3 and 1.5 optical densities for slowly and rapidly proliferating cells respectively.\nExperiments using pre-incubation with CHP were performed using more cell lines, namely BxPC3 and MIAPaCa2 pancreatic cancer cell lines. […]"}, "[2]": {"system": "WI38 normal fibroblasts", "experiment": "MTT proliferation (chemosensitivity) assay, WI38", "conditions": "W138", "experimental": "as §1, §2\n(§4) 10^4 cells/well were distributed into 96-well microtitre plates (100 μl medium) and the compounds to be tested were added in another 100 μl volume. All compounds were diluted in triplicate or in most cases in quadruplicate. Plates were incubated under tissue culture conditions for 4 days, except those for tests investigating the relationship between application time and response, and cell viability was measured using a modified MTT assay (formazane dye formation from tetrazolium salts by mitochondrial reduction; EZ4U, Biomedica, Vienna, Austria), assessing mitochondrial activity and thereby cell viability/cell numbers. […]"}, "[3]": {"system": "Colo205 colon cancer cells", "experiment": "MTT proliferation (chemosensitivity) assay, Colo205"}, "[4]": {"system": "HT29 colon cancer cells", "experiment": "MTT proliferation (chemosensitivity) assay, HT29", "conditions": "high concentrations of Cetuximab", "experimental": "as §1, §2, §4"}, "[5]": {"system": "SW620 colon cancer cells", "experiment": "MTT proliferation (chemosensitivity) assay, SW620", "experimental": "as §1, §2\nas §3, with “100%.” for “100%. Test results were recorded between 0.3 and 1.5 optical densities for slowly and rapidly proliferating cells respectively.”\nSW620chp4 and A431chp4 cells represent cells pre-treated with 400 μg/ml CHP for 5 days under tissue culture conditions."}, "[6]": {"system": "DLD1 colon cancer cells", "experiment": "MTT proliferation (chemosensitivity) assay, DLD1", "conditions": "high concentrations of Cetuximab", "experimental": "as §1, §2, §4"}, "[7]": {"system": "A431 epidermoid carcinoma", "experiment": "MTT proliferation (chemosensitivity) assay, A431", "conditions": "A431 EGFR-overexpressing cell line", "experimental": "as §1, §2, §4"}, "[8]": {"system": "EGFR", "experiment": "EGFR expression of A431 cells after CHP pre-incubation", "conditions": "A431 cells pre-incubated with CHP"}, "[9]": {"system": "colo250 colon cancer cell lines", "experiment": "CHP with analytical EGFR-antibody, inhibition of proliferation", "conditions": "read-out: Inhibition of the control in %", "experimental": "as §1, §2, §4"}, "[10]": {"conditions": "Homo sapiens, COLO 205, read-out: proliferation activity (% of control)"}, "[11]": {"conditions": "Homo sapiens, read-out: proliferation activity (% of control)"}, "[12]": {"conditions": "Homo sapiens, SW-620, read-out: proliferation activity (% of control)"}}}
{"compound": "O=C(O)[C@@H]1C[C@H](O)CN1", "note": "[CHP, Cis-4-hydroxy-L-proline]", "values": [{"measurement": "interaction CHP-Cetuximab, pre-incubation with CHP 200 μg/ml", "setting": "[1]", "result": "antagonistic interaction"}, {"measurement": "interaction with Rituximab, CHP pre-treatment", "setting": "[1]; 400 μg/ml CHP for 5 days", "result": "synergy"}, {"measurement": "interaction Avastatin-CHP pre-incubation", "setting": "[1]; high concentrations of Avastatin", "result": "Slightly synergistic effects"}, {"measurement": "interaction with Cetuximab, sequential combination (CHP pre-treatment)", "setting": "[2]", "result": "antagonistic effects"}, {"measurement": "interaction with Cetuximab, direct combination", "setting": "[3]; C205, CHP 400 μg/ml, at 5 and […] (printed as concentrations of CHP)", "result": "antagonistic"}, {"measurement": "interaction with Cetuximab, direct combination", "setting": "[3]; C205, CHP 400 μg/ml, other concentrations", "result": "no significant interaction"}, {"measurement": "interaction Avastatin-CHP pre-incubation", "setting": "[3]; Colo205, high concentrations of Avastatin", "result": "Slightly synergistic effects"}, {"measurement": "interaction with Cetuximab, direct combination", "setting": "[3]; Colo205 cells, higher concentrations of CHP (50, 200 and 400 μg/ml), Cetuximab 40 μg/ml", "result": "antagonistic"}, {"measurement": "activity at 12.5 µg/mL", "setting": "[3]; [10]", "result": "92.2 ± 1.4", "unit": "%"}, {"measurement": "activity at 25 µg/mL", "setting": "[3]; [10]", "result": "94.4 ± 6.2", "unit": "%"}, {"measurement": "activity at 50 µg/mL", "setting": "[3]; [10]", "result": "84.2 ± 2.1", "unit": "%"}, {"measurement": "activity at 200 µg/mL", "setting": "[3]; [10]", "result": "15.7 ± 1", "unit": "%"}, {"measurement": "activity at 400 µg/mL", "setting": "[3]; [10]", "result": "9.9 ± 0.4", "unit": "%"}, {"measurement": "activity at 100 µg/mL", "setting": "[3]; [11]", "result": "45.5 ± 3.2", "unit": "%"}, {"measurement": "interaction with Cetuximab, sequential combination (CHP pre-treatment)", "setting": "[4]", "result": "antagonistic effects"}, {"measurement": "activity at 12.5 µg/mL", "setting": "[5]; [12]", "result": "98.7 ± 3", "unit": "%"}, {"measurement": "activity at 25 µg/mL", "setting": "[5]; [12]", "result": "92.3 ± 0.9", "unit": "%"}, {"measurement": "activity at 50 µg/mL", "setting": "[5]; [12]", "result": "91.9 ± 4.1", "unit": "%"}, {"measurement": "activity at 200 µg/mL", "setting": "[5]; [12]", "result": "69.9 ± 2.6", "unit": "%"}, {"measurement": "activity at 400 µg/mL", "setting": "[5]; [12]", "result": "51.3 ± 3.7", "unit": "%"}, {"measurement": "activity at 100 µg/mL", "setting": "[5]; [11]", "result": "85.2 ± 0.7", "unit": "%"}, {"measurement": "interaction with Cetuximab, direct combination", "setting": "[5]; SW620 cells, low concentrations of CHP (6.3-50 μg/ml), Cetuximab 40 μg/ml", "result": "antagonistic"}, {"measurement": "interaction with Cetuximab, sequential combination (CHP pre-treatment)", "setting": "[6]", "result": "antagonistic effects"}, {"measurement": "interaction of CHP pre-incubation with Cetuximab", "setting": "[7]", "result": "antagonistic interaction"}, {"measurement": "expression of EGFR", "setting": "[8]", "result": "reduced expression of EGFR"}, {"measurement": "inhibition at 200 µg/mL", "setting": "[9]; CHP 200 μg/ml alone", "result": "7.3 ± 8.1", "unit": "%"}, {"measurement": "inhibition at 100 µg/mL", "setting": "[9]; CHP100, CHP 100 μg/ml alone", "result": "2.9 ± 10.1", "unit": "%"}]}
{"compound": "CCOC(=O)[C@@H]1CC(O)CN1C", "note": "(stereo partly shown) [A1.21, 4-hydroxy-1-methyl-proline ethyl ester]", "values": [{"measurement": "proliferation activity (% of control)", "setting": "[3]; Colo 205 cells pre-incubated with the derivative 50 μg/ml for 5 days, then Cetuximab, Cetuximab concentrations not given", "result": "94.5 ± 1.7", "unit": "%"}]}
